From patent US8048888B2, “Anti-proliferative combination therapy using certain platinum-based chemotherapeutic agents and EGFR inhibitors or pyrimidine analogues” (Agennix AG, priority 2005, dated 2011)
Like-named read-outs stand apart in the source and are kept apart here.

Experiments:
MCF7 cell line = experiment: SRB assay, simultaneous JM118 and 5FU, 48 hours; type: cell-based; conditions: Homo sapiens, read-out: Growth inhibition
Description: For this experiment the human colorectal carcinoma cell line HCT 116 (ATCC order number: CCL-247; Cancer Res (1981) 41, 1751; J Natl Cancer Inst (1982) 69, 767) and the human adenocarcinoma cell line MCF7 (ATCC order number: HTB-22; Cancer Res (1983) 43, 2831; Science (1985) 230, 943) were used.
5FU was dissolved in 0.1% DMSO at a concentration of 20 mM.
Cells were incubated with both compounds simultaneously.

[1] = system: MX-1 tumor (human breast carcinoma); conditions: for Median tumor volume / T/C %: capecitabine 750 mg/kg/adm PO Q1Dx8
Description: Healthy female SWISS nu/nu mice, 6-7 weeks old, 17-22 g, were obtained from Charles River (L'Arbresle, France). Animals were acclimated for seven days in a specific-pathogen-free (SPF) animal care unit before treatment. MX-1 tumor implants were purchased and provided by Oncodesign (Dijon, France). MX-1 is a human breast carcinoma cell line.
To induce MX-1 tumors in nude mice ten female SWISS nude mice were subcutaneously implanted with thawed fragments of MX-1 tumor 24 hours after whole body irradiation with a γ-source (Co^60, INRA, Dijon, France). Mice were continuously monitored and terminated when tumors reached 700 to 1000 mm^3. Tumors were then surgically excised and homogenous fresh fragments were subcutaneously implanted in the right flanks of 130 SWISS nude mice.
Ninety (90) mice were randomized into 9 groups of 10 mice each.
Suspensions were continuously agitated during administration to mice.
The treatment schedule was as follows (all dosage indicated are dosages per administration): • Mice from group 1 received one daily PO (oral) administration of satraplatin vehicle (arachis oil, see above) for 5 consecutive days from D21 (day 21) to D25 (referred to as Q1D×5) in combination with one daily PO administration of capecitabine vehicle (Citrate buffer containing Arabic gum, see above) for 8 consecutive days from D21 to D28 (Q1D×8), • Mice from group 2 received one daily PO administration of capecitabine at 750 mg/kg (milligram per kilogram of body weight) for 8 consecutive days from D21 to D28 (Q1D×8), • Mice from group 3 received one daily PO administration of satraplatin at 5 mg/kg for 5 consecutive days from D21 to D25 (Q1D×5), • Mice from group 4 received one daily PO administration of satraplatin at 15 mg/kg for 5 consecutive days from D21 to D25 (Q1 D×5), • Mice from group 5 received one daily PO administration of satraplatin at 25 mg/kg for 5 consecutive days from D21 to D25 (Q1D×5), • Mice from group 6 received one daily PO administration of satraplatin at 45 mg/kg for 5 consecutive days from D21 to D25 (Q1D×5), • Mice from group 7 received one daily PO administration of satraplatin at 5 mg/kg for 5 consecutive days from D21 to 025 (Q1D×5) in combination with one daily PO administration of capecitabine at 750 mg/kg for 8 consecutive days from D21 to D28 (Q1D×8), • Mice from group 8 received one daily PO administration of satraplatin at 15 mg/kg for 5 consecutive days from D21 to D25 (Q1D×5) in combination with one daily PO administration of capecitabine at 750 mg/kg for 8 consecutive days from D21 to D28 (Q1D×8), • Mice from group 9 received one daily PO administration of satraplatin at 25 mg/kg for 5 consecutive days from D21 to D25 (Q1D×5) in combination with one daily PO administration of capecitabine at 750 mg/kg for 8 consecutive days from D21 to D28 (Q1D×8). Satraplatin was administered 30 minutes after capecitabine. Satraplatin and capecitabine were administered at a dose volume of 10 ml/kg body weight.
During the course of the experiment, viability and behaviour of mice were recorded every day. Mice body weight and tumor volume was recorded twice a week. Mice were terminated when tumor weight was equivalent to 10% of body weight or when a body weight loss of 20% was observed.
Tumor growth inhibition (T/C %) is defined as the ratio of the median tumor volume of a given treated group (test or reference substance) versus the equivalent median volume from the control group. T/C % is calculated as follows: […]
The optimal value is the minimal T/C % ratio that reflects the maximal tumor growth inhibition achieved.
Tumor Log cell kill was calculated using the following formula:
[formula] wherein DT is the doubling time of the tumor.

A129 cp80 cell line = experiment: SRB cytotoxicity assay, 48 hours, cisplatin-resistant A129 cp80; type: cell-based
Description: (§1) The parental non-mutated cell line A129 was used as control.
(§2) Briefly, cells were plated in 96 well dishes 24 hours prior to compound addition. The assay was terminated with the addition of cold TCA to a final concentration of 10% and the plates were incubated for one hour at 4° C. The plates were then washed 5 times with water and 100 μl of a Sulforhodamine B solution ([…]) was added to each well. The plate was then incubated for 10 minutes at room temperature before removal of unbound dye by washing with 1% acetic acid. The bound dye was solubilized with 10 mM Trizma base and the absorbance read at OD570.
(§3) Numbers in brackets indicate how often experiments were performed. In each single experiment a minimum of three replica wells was used for each drug concentration and cell line. Shown are mean values and standard deviations of the IC50s, as determined in the individual experiments. RR denominates the relative resistance, i.e. the relative level of resistance conferred to the indicated drugs.

A129 = experiment: SRB cytotoxicity assay, 48 hours, parental cell line A129; type: cell-based; conditions: A129, 48 hours
Description: as §1, §2, §3

UM-UC-3 cell line [2] = experiment: SRB assay, sequential: JM-118 48 hours, followed by gemcitabine 48 hours; type: cell-based; conditions: Homo sapiens, UMUC3, JM118 first, read-out: Growth inhibition
Description: (§4) Gemcitabine was dissolved in saline at a concentration of 10 mM. Cells were seeded at 1,500 cells per well.
Cells were incubated with both compounds sequentially, wherein cells were incubated with JM118 first.

UM-UC-3 cell line [3] = experiment: SRB assay, sequential: gemcitabine 48 hours, followed by JM118 48 hours; type: cell-based; conditions: Homo sapiens, UMUC3, Gemcitabine first, read-out: Growth inhibition
Description: as §4
Cells were incubated with both compounds sequentially, wherein cells were incubated with gemcitabine first.

O=c1[nH]cc(F)c(=O)[nH]1 [5FU, 5-fluorouracil]
inhibition at 0.3125 µM (MCF7 cell line; JM118 0 + 5FU 0.3125 μM): 1.1% | inhibition at 0.625 µM (MCF7 cell line; JM118 0 + 5FU 0.625 μM): 2.9% | inhibition at 1.25 µM (MCF7 cell line; JM118 0 + 5FU 1.25 μM): 7.2% | inhibition at 2.5 µM (MCF7 cell line; JM118 0 + 5FU 2.5 μM): 17.3% | inhibition at 5 µM (MCF7 cell line; JM118 0 + 5FU 5 μM): 37.4% | inhibition at 10 µM (MCF7 cell line; JM118 0 + 5FU 10 μM): 67.7%

CC(=O)[O][Pt]([NH2])([Cl])([Cl])([NH]C1CCCCC1)[O]C(C)=O [Satraplatin]
toxicity in mice ([1]; satraplatin 45 mg/kg): toxic effects

N.N.[Cl][Pt][Cl] [Cisplatin]
IC50 (A129 cp80 cell line; A129 cp80, 48 hours): 15.1 µM | RR (relative resistance) (A129 cp80 cell line; A129 cp80 versus A129): 80 +/− 25 | IC50 (A129): 0.23 µM

Nc1ccn([C@@H]2O[C@H](CO)[C@@H](O)C2(F)F)c(=O)n1 [Gemcitabine, 2′,2′-difluorodeoxycytidine]
inhibition at 0.002 µM (UM-UC-3 cell line [2]; JM118 0 + Gemcitabine 0.0020 μM): 2.6% | inhibition at 0.0039 µM (UM-UC-3 cell line [2]; JM118 0 + Gemcitabine 0.0039 μM): 8.7% | inhibition at 0.0078 µM (UM-UC-3 cell line [2]; JM118 0 + Gemcitabine 0.0078 μM): 23.4% | inhibition at 0.0156 µM (UM-UC-3 cell line [2]; JM118 0 + Gemcitabine 0.0156 μM): 43.9% | inhibition at 0.0313 µM (UM-UC-3 cell line [2]; JM118 0 + Gemcitabine 0.0313 μM): 57.8% | inhibition at 0.0625 µM (UM-UC-3 cell line [2]; JM118 0 + Gemcitabine 0.0625 μM): 63.3% | inhibition at 0.0015625 µM (UM-UC-3 cell line [3]; JM118 0 + Gemcitabine 0.0015625 μM): 0.2% | inhibition at 0.003125 µM (UM-UC-3 cell line [3]; JM118 0 + Gemcitabine 0.003125 μM): 1.2% | inhibition at 0.00625 µM (UM-UC-3 cell line [3]; JM118 0 + Gemcitabine 0.00625 μM): 8.3% | inhibition at 0.0125 µM (UM-UC-3 cell line [3]; JM118 0 + Gemcitabine 0.0125 μM): 41.7% | inhibition at 0.025 µM (UM-UC-3 cell line [3]; JM118 0 + Gemcitabine 0.025 μM): 87.8% | inhibition at 0.05 µM (UM-UC-3 cell line [3]; JM118 0 + Gemcitabine 0.05 μM): 103%

CCCCCOC(=O)Nc1nc(=O)n([C@@H]2O[C@H](C)[C@@H](O)[C@H]2O)cc1F [Capecitabine]
tumor log cell kill ([1]; capecitabine 750 mg/kg alone): 0.2 | Median tumor volume ([1]; D21): 98.8 mm^3 | T/C % ([1]; D21): 124% | Median tumor volume ([1]; D26): 217.5 mm^3 | T/C % ([1]; D26): 114% | Median tumor volume ([1]; D29): 322.1 mm^3 | T/C % ([1]; D29): 81% | Median tumor volume ([1]; D33): 498.2 mm^3 | T/C % ([1]; D33): 65% | Median tumor volume ([1]; D36): 711.0 mm^3 | T/C % ([1]; D36): 62% | Median tumor volume ([1]; D40): 1046.3 mm^3 | T/C % ([1]; D40): 66% | Median tumor volume ([1]; D43): 1598.0 mm^3 | T/C % ([1]; D43): 68%
